Data from ChEMBL document CHEMBL4507318, “Data for DCP probe BAY-985” (2021).

Columns and labels:
[1] = target: Sigma intracellular receptor 2 (Homo sapiens, UniProt Q5BJF2); experiment: GPCRScan assay: inhibition of Sigma 2; design: radioligand conc. used [nm] 5.0, parental cells HEKT
[2] = system: Tyrosine-protein kinase ABL1 (Homo sapiens), P00519 [Q252H]
[3] = target: Activin receptor type-1 (Homo sapiens) (UniProt Q04771)
[4] = target: Activin receptor type-2A (Homo sapiens) (UniProt P27037)
[5] = target: NUAK family SNF1-like kinase 1 (Homo sapiens) (UniProt O60285)
[6] = target: Bone morphogenetic protein receptor type-1B (Homo sapiens) (UniProt O00238)
[7] = target: Calcium/calmodulin-dependent protein kinase type 1G (Homo sapiens) (UniProt Q96NX5)
[8] = system: Epidermal growth factor receptor (Homo sapiens), P00533 [G719C]
[9] = system: Epidermal growth factor receptor (Homo sapiens), P00533 [UNDEFINED MUTATION]
[10] = target: Fibroblast growth factor receptor 1 (Homo sapiens) (UniProt P11362)
[11] = target: Fibroblast growth factor receptor 2 (Homo sapiens) (UniProt P21802)
[12] = target: Vascular endothelial growth factor receptor 1 (Homo sapiens) (UniProt P17948)
[13] = target: Tyrosine-protein kinase JAK1 (Homo sapiens) (UniProt P23458)
[14] = target: Mast/stem cell growth factor receptor Kit (Homo sapiens) (UniProt P10721)
[15] = target: Leucine-rich repeat serine/threonine-protein kinase 2 (Homo sapiens) (UniProt Q5S007)
[16] = target: Mitogen-activated protein kinase kinase kinase kinase 2 (Homo sapiens) (UniProt Q12851)
[17] = target: Dual specificity mitogen-activated protein kinase kinase 4 (Homo sapiens) (UniProt P45985)
[18] = target: Myosin-IIIb (Homo sapiens) (UniProt Q8WXR4)
[19] = target: Serine/threonine-protein kinase 38-like (Homo sapiens) (UniProt Q9Y2H1)
[20] = target: Serine/threonine-protein kinase Nek1 (Homo sapiens) (UniProt Q96PY6)
[21] = target: Mitogen-activated protein kinase 11 (Homo sapiens) (UniProt Q15759)
[22] = target: Cyclin-dependent kinase 2 homolog (Plasmodium falciparum (isolate 3D7)) (UniProt P61075)
[23] = system: Phosphatidylinositol 4,5-bisphosphate 3-kinase catalytic subunit alpha isoform (Homo sapiens), P42336 [H1047Y]
[24] = target: Phosphatidylinositol 4,5-bisphosphate 3-kinase catalytic subunit beta isoform (Homo sapiens) (UniProt P42338)
[25] = target: Serine/threonine-protein kinase PLK2 (Homo sapiens) (UniProt Q9NYY3)
[26] = target: Serine/threonine-protein kinase D1 (Homo sapiens) (UniProt Q15139)
[27] = target: cGMP-dependent protein kinase 1 (Homo sapiens) (UniProt Q13976)
[28] = target: cAMP-dependent protein kinase catalytic subunit PRKX (Homo sapiens) (UniProt P51817)
[29] = target: Ribosomal protein S6 kinase alpha-4 (Homo sapiens) (UniProt O75676)
[30] = target: Ribosomal protein S6 kinase alpha-1 (Homo sapiens) (UniProt Q15418)
[31] = target: Ribosomal protein S6 kinase alpha-2 (Homo sapiens) (UniProt Q15349)
[32] = target: Mitogen-activated protein kinase kinase kinase 7 (Homo sapiens) (UniProt O43318)
[33] = target: Serine/threonine-protein kinase TAO2 (Homo sapiens) (UniProt Q9UL54)
[34] = target: Serine/threonine-protein kinase tousled-like 1 (Homo sapiens) (UniProt Q9UKI8)
[35] = target: Non-receptor tyrosine-protein kinase TNK1 (Homo sapiens) (UniProt Q13470)
[36] = target: Activated CDC42 kinase 1 (Homo sapiens) (UniProt Q07912)
[37] = target: Transient receptor potential cation channel subfamily M member 6 (Homo sapiens) (UniProt Q9BX84)
[38] = target: Wee1-like protein kinase 2 (Homo sapiens) (UniProt P0C1S8)
[39] = target: Serine/threonine-protein kinase WNK3 (Homo sapiens) (UniProt Q9BYP7)
[40] = target: D(2) dopamine receptor (Homo sapiens) (UniProt P14416); settings: Compound concentration 10.0 uM
[41] = target: D(1B) dopamine receptor (Homo sapiens) (UniProt P21918); settings: Compound concentration 10.0 uM
[42] = target: Alpha-2B adrenergic receptor (Homo sapiens) (UniProt P18089); settings: Compound concentration 10.0 uM
[43] = target: Muscarinic acetylcholine receptor M1 (Homo sapiens) (UniProt P11229); settings: Compound concentration 10.0 uM
[44] = target: Muscarinic acetylcholine receptor M2 (Homo sapiens) (UniProt P08172); settings: Compound concentration 10.0 uM
[45] = target: Sigma non-opioid intracellular receptor 1 (Homo sapiens) (UniProt Q99720); settings: Compound concentration 10.0 uM
[46] = Compound concentration 1000.0 nM
[47] = Compound concentration 100.0 nM

Sequence of Sigma intracellular receptor 2 (Q5BJF2 whole entry): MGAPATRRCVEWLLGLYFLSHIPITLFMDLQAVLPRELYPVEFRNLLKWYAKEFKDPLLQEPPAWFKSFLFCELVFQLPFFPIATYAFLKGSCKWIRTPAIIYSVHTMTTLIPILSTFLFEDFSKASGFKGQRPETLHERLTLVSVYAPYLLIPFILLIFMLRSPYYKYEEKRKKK
Sequence of Mast/stem cell growth factor receptor Kit (Homo sapiens) (P10721 whole entry): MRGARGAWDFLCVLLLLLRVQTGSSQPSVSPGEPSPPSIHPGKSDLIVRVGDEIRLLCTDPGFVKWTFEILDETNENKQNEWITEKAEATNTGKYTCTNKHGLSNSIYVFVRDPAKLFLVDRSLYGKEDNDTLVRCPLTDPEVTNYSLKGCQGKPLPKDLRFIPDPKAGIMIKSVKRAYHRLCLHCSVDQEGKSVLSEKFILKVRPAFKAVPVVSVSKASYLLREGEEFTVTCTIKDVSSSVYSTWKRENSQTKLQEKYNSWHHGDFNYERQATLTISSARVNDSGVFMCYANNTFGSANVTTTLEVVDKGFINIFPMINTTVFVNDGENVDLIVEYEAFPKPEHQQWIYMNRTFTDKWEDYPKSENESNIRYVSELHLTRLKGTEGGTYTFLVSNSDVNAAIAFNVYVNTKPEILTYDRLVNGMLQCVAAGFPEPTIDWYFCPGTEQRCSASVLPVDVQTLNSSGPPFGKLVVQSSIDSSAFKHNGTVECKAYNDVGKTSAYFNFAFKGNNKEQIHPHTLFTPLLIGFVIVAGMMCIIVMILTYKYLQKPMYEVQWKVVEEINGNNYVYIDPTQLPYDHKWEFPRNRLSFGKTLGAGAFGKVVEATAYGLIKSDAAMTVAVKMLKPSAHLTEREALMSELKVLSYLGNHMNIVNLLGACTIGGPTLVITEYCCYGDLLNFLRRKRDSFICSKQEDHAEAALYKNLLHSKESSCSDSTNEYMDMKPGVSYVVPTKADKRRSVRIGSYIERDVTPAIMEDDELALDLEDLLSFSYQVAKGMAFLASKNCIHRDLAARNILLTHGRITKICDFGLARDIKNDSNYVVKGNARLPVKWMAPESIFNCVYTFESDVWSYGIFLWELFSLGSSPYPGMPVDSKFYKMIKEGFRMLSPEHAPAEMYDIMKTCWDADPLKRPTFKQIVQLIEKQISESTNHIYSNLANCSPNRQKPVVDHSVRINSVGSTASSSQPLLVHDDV
Sequence of Serine/threonine-protein kinase Nek1 (Homo sapiens) (Q96PY6 whole entry): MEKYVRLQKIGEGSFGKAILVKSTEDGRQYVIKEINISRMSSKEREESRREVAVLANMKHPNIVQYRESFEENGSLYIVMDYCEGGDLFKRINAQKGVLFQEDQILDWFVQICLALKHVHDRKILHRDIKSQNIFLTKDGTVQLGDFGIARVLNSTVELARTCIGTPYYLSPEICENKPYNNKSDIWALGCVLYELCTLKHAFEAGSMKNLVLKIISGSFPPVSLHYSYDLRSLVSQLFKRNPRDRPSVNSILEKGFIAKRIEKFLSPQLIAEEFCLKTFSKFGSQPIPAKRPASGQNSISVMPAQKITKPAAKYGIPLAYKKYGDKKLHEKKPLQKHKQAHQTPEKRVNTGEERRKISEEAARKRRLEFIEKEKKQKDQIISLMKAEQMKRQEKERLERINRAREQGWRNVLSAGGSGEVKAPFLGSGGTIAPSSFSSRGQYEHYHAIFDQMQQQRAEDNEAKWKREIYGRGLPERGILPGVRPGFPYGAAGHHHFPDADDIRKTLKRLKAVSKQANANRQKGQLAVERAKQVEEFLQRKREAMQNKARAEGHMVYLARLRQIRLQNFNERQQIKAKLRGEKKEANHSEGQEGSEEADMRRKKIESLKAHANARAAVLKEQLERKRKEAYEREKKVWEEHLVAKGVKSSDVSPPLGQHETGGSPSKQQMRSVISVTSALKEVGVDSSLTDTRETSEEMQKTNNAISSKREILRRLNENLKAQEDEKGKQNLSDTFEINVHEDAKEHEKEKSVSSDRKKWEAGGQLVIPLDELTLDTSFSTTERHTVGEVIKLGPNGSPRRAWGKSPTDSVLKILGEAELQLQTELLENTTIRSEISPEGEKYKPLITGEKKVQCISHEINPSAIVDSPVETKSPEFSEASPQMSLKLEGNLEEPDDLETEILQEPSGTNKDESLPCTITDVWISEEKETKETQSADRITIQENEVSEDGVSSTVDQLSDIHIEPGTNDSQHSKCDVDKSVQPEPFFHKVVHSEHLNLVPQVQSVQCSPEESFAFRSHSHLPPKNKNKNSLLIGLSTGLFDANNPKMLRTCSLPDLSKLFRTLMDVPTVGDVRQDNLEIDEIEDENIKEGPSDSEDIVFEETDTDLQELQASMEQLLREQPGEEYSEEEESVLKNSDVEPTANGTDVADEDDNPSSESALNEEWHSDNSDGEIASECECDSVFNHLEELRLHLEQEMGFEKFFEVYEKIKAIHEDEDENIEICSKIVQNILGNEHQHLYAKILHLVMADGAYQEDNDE
Sequence of Leucine-rich repeat serine/threonine-protein kinase 2 (Homo sapiens) (Q5S007 whole entry): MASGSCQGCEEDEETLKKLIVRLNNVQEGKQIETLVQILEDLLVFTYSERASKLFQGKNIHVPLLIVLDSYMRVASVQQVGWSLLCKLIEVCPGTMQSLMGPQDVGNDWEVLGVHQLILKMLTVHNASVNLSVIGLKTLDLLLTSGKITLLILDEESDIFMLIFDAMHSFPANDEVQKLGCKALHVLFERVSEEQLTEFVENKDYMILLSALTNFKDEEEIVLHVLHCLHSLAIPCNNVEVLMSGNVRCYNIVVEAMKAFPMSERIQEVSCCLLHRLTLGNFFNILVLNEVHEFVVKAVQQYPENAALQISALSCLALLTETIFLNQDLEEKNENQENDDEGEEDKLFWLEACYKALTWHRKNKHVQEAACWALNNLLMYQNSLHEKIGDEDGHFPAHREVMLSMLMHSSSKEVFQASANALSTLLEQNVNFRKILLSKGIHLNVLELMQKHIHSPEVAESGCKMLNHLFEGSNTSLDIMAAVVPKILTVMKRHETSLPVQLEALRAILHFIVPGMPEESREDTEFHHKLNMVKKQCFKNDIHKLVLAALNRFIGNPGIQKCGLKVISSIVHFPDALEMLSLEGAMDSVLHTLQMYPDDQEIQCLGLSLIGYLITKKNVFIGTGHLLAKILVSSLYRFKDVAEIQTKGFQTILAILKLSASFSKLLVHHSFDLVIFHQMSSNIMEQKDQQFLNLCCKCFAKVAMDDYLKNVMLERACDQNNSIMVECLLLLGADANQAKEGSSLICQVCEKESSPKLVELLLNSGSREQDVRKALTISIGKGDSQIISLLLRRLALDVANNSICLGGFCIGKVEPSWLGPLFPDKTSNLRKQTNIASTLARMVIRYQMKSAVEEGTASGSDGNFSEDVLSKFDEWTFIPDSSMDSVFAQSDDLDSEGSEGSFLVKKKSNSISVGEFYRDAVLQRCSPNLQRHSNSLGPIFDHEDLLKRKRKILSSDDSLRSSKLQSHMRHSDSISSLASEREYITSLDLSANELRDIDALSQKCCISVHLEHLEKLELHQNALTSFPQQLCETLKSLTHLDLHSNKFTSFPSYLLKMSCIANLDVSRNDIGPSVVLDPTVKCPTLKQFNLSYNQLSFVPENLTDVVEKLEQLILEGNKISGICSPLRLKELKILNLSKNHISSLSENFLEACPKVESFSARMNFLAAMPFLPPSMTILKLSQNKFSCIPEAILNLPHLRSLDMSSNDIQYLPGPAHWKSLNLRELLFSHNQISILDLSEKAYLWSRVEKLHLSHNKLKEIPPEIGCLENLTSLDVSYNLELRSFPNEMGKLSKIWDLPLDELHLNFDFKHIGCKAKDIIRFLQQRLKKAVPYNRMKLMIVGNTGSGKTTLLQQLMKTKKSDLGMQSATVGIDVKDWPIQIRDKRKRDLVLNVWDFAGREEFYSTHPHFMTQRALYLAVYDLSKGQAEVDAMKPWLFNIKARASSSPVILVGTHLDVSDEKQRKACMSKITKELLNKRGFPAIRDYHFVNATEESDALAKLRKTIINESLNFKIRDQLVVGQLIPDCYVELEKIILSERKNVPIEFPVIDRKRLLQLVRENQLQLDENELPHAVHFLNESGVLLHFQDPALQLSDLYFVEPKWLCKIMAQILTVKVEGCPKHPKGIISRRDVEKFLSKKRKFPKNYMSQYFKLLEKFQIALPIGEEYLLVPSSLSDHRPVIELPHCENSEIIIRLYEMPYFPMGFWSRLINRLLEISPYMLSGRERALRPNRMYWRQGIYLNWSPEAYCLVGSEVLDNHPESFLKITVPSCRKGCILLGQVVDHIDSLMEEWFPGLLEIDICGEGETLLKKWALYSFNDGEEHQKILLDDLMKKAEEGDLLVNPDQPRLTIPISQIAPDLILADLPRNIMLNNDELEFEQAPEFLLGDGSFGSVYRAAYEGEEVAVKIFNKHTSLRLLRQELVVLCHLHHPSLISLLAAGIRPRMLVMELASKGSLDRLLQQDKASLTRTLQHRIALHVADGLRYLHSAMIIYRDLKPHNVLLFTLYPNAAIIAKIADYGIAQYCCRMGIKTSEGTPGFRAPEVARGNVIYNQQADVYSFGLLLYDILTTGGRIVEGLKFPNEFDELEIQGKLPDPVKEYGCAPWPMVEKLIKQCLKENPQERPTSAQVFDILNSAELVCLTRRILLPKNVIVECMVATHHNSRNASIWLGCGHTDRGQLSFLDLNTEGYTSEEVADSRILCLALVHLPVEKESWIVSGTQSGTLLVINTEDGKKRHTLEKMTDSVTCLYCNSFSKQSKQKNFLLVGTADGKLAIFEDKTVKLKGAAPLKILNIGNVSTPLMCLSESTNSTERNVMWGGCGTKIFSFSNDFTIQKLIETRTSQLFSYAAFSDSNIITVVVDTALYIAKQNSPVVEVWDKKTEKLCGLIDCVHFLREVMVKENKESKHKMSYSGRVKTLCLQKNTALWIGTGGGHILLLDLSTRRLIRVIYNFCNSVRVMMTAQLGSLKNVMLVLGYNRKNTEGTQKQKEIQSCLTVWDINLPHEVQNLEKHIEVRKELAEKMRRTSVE

`CN(C)c1ncnc(-c2ccc3nc(Nc4cc(CN5CCN(C(=O)CC(F)(F)F)CC5)ccn4)[nH]c3c2)c1Cl` [BAY-440] was tested, and the Ki ([1]; read-out: Ki) was 2190 nM, the residual activity [2, 46] was 29% and the residual activity [3, 46] was 88%. The residual activity [4, 46] was 90%, the residual activity [5, 46] was 100% and the residual activity [6, 46] was 59%. It also gave a residual activity [7, 46] of 100%, a residual activity [8, 46] of 88% and a residual activity [9, 46] of 100%. The residual activity [10, 46] was 100%, the residual activity [11, 46] was 100% and the residual activity [12, 46] was 100%. The residual activity [13, 46] was 93%, the residual activity [14, 46] was 100% and the residual activity [15, 46] was 84%. For the same compound, the residual activity [16, 46] was 69%, the residual activity [17, 46] was 92% and the residual activity [18, 46] was 100%. It also gave a residual activity [19, 46] of 74%, a residual activity [20, 46] of 88% and a residual activity [21, 46] of 97%. It also gave a residual activity [22, 46] of 85%, a residual activity [23, 46] of 74% and a residual activity [24, 46] of 82%. It also gave a residual activity [25, 46] of 100%, a residual activity [26, 46] of 100% and a residual activity [27, 46] of 94%. It also gave a residual activity [28, 46] of 100%, a residual activity [29, 46] of 73% and a residual activity [30, 46] of 100%. It also gave a residual activity [31, 46] of 100%, a residual activity [32, 46] of 74% and a residual activity [33, 46] of 80%. It also gave a residual activity [34, 46] of 89%, a residual activity [35, 46] of 96% and a residual activity [36, 46] of 96%. The residual activity [37, 46] was 100%, the residual activity [38, 46] was 100% and the residual activity [39, 46] was 85%. The inhibition [40] was 10.6%, the inhibition [41] was -9.93% and the inhibition [42] was -2.22%. For the same compound, the inhibition [43] was 32.1%, the inhibition [44] was 35.1% and the inhibition [45] was 13.9%.
`C[C@H](c1ccnc(Nc2nc3ccc(-c4cc(N(C)C)ncn4)cc3[nH]2)c1)N1CCN(C(=O)CC(F)(F)F)CC1` [BAY-985] gave a Ki ([1]; read-out: Ki) of 1160 nM, a Ki ([1]; read-out: pKi (converted)) of 1120 nM and a residual activity [2, 47] of 84%. For the same compound, the residual activity [3, 47] was 100%, the residual activity [4, 47] was 100% and the residual activity [5, 47] was 93%. For the same compound, the residual activity [6, 47] was 86%, the residual activity [7, 47] was 76% and the residual activity [8, 47] was 84%. It also gave a residual activity [9, 47] of 89%, a residual activity [10, 47] of 100% and a residual activity [11, 47] of 100%. It also gave a residual activity [12, 47] of 100%, a residual activity [13, 47] of 92% and a residual activity [14, 47] of 88%. For the same compound, the residual activity [15, 47] was 94%, the residual activity [16, 47] was 100% and the residual activity [17, 47] was 100%. For the same compound, the residual activity [18, 47] was 100%, the residual activity [19, 47] was 65% and the residual activity [20, 47] was 93%. The residual activity [21, 47] was 89%, the residual activity [22, 47] was 100% and the residual activity [23, 47] was 100%. It also gave a residual activity [24, 47] of 100%, a residual activity [25, 47] of 100% and a residual activity [26, 47] of 100%. It also gave a residual activity [27, 47] of 100%, a residual activity [28, 47] of 99% and a residual activity [29, 47] of 94%. It also gave a residual activity [30, 47] of 100%, a residual activity [31, 47] of 89% and a residual activity [32, 47] of 85%. It also gave a residual activity [33, 47] of 100%, a residual activity [34, 47] of 76% and a residual activity [35, 47] of 100%. For the same compound, the residual activity [36, 47] was 100%, the residual activity [37, 47] was 100% and the residual activity [38, 47] was 98%. For the same compound, the residual activity [39, 47] was 100%, the inhibition [40] was 5.66% and the inhibition [41] was 10.2%. The inhibition [42] was 24.7%, the inhibition [43] was 15.1% and the inhibition [44] was 32.9%. For the same compound, the inhibition [45] was 3.18%.
